Active and inactive are the calls of the source. No cut-off for these calls is given here.
How the values were obtained:
[1] = tested on: Staphylococcus aureus; test: Antibacterial activity against methicillin-resistant Staphylococcus aureus CGMCC1.12409 infected in mouse model assessed as reduction in abscesses in subcutaneous tissues at 10 mg/kg measured for 5 days; format: functional, organism-based; settings: time 5.0 day
[2] = tested on: Staphylococcus aureus; test: Antibacterial activity against methicillin-resistant Staphylococcus aureus ATCC 43300 in presence of Mg2+ (reference value: 0.5 ug/ml); format: functional
[3] = tested on: Staphylococcus aureus; test: Antibacterial activity against methicillin-resistant Staphylococcus aureus CGMCC1.12409 infected in mouse model assessed as reduction in inflammation in skin tissues at 5 to 10 mg/kg measured for 5 days by H and E staining based analysis; format: functional, organism-based; settings: dose 5-10 mg/kg, time 5.0 day

Structure (SMILES): COc1ccc2[nH]c3c(CC[C@H](C)[C@H]4CC[C@H]5[C@@H]6[C@H](O)C[C@@H]7C[C@H](O)CC[C@]7(C)[C@H]6C[C@H](O)[C@]45C)[n+](Cc4ccc(Cl)cc4)ccc3c2c1.[Br-]
- Activity [1]: Active
- MIC [2]: 0.5 µg/mL
- Activity [3]: Active

From ChEMBL document CHEMBL6078723, “Novel steroidal β-carboline derivatives as promising antibacterial candidates against methicillin-resistant Staphylococcus aureus” (Eur J Med Chem, 2025)
